From patent US20040101827A1, “Methods of infection with hepatitis c virus” (priority 2000, published 2004)

Test system: HCV
Test: Yield of HCV (HCV RNA level) in culture supernatant of HCV cDNA-introduced IMY42-5 cells, real-time detection RT-PCR
Assay type: cell-based, hepatitis C virus
Settings: ribavirin 0, 25, 50, 100, 200 μM added simultaneously with Tam, cultured for 2 days (FIG. 10)
Procedure: IMY42-5 cells were prepared by incorporating into IMY-N9 cells, pCALN/HCV RBZ and CAG-Mer-Cre-Mer (Nucleic Acids Res., 1996, 24(4), 543-548) that expresses active Cre recombinant enzyme by adding tamoxifen co-expressed constitutively therein. When tamoxifen acts on the cells, the stuffer region of pCALN/HCV RBZ was looped out and HCV cDNA was expressed.
IMY42-5 cells (2.5×10^5/ml) were inoculated, 100 μl/well in a 96-well plate, and then cultured overnight at 37° C. under 5% CO2 atmosphere. Then 4-hydroxi-tamoxifen (Tam) was added at a concentration of 100 nM. On the next day and 3 days after the addition of Tam, the culture supernatant was collected. RNA in the culture supernatant was extracted using ISOGEN-LS (Wako Pure Chemical Industries, Ltd.), and then HCV RNA levels were quantified by the Real-time detection RT-PCR (Takeuchi T. et al; Gastroenterology 1999; 116: 636-642) method.
CsA (100, 10, 1 and 0 nM) was added simultaneously with the addition of Tam to IMY42-5 cells. The cells were cultured for 3 days, and then HCV RNA levels in the culture supernatant was measured by Real-time detection RT-PCR.
Ribavirin (0, 25, 50, 100, 200 μM) was added simultaneously with the addition of Tam to IMY42-5 cells. The cells were cultured for 2 days, and then HCV RNA levels in the culture supernatant were measured.

How did the “HCV RNA levels in the culture supernatant (yield of virus)” value turn out when `NC(=O)c1ncn([C@@H]2O[C@H](CO)[C@@H](O)[C@H]2O)n1` [Ribavirin, ribavirin] was run?
The value was “no decrease”.
